According to patent US10781183B2, “Small molecule inducers of reactive oxygen species and inhibitors of mitochondrial activity” (The Regents of the University of Michigan, priority 2016, dated 2020):
Like-named read-outs stand apart in the source and are kept apart here.

Experiments:
MiaPaCa-2 cells [1] = experiment: MTT cytotoxicity assay, MiaPaCa-2; assay type: cell-based; settings: for IC50: Homo sapiens, Mean ± SD, three independent experiments
Method: (§1) MiaPaCa-2, Panc-1 and BxPC-3 pancreatic cancer cell lines were obtained from the ATCC. Normal pancreatic cells HPDE and HPNE were kindly provided (Translational Oncology Program, University of […], Ann Arbor, Mich.). Gemcitabine resistant cell line MiaPaCa-2-GR (gemcitabine resistant) was kindly provided (Department of Pathology, Wayne State University, Detroit, Mich.). All cell lines were cultured as monolayer and maintained in RPMI1640 supplemented with 10% fetal bovine serum (FBS) in a humidified atmosphere with 5% CO2 at 37° C. MiaPaCa-2-GR culture was supplemented with 200 nM gemcitabine.
(§2) Cytotoxicity of compounds was evaluated with 3-(4,5-dimethylthiazol-2-yl)-2,5-diphenyltetrazolium bromide (MTT) assay. Cells were placed in 96-well plate at 3000-8000 cells/well. After overnight attachment, compounds were added to the wells at sequential dilutions (30 nM-10 μM for most cell lines). After 72 h treatment, MTT was added into the media to a final concentration of 300 μg/mL. Cells were incubated for 3 h at 37° C., and the insoluble formazan converted by viable cells were dissolved in 150 μL of DMSO. Absorbance at 570 nm was read by microplate reader (Molecular devices, Sunnyvale, Calif.), and inhibition of cell proliferation was calculated using the following formula: Inhibition of cell proliferation (%)=(1−ODtreatment/ODcontrol)×100%

HPDE = experiment: MTT cytotoxicity assay, immortalized pancreatic cell line HPDE; assay type: cell-based, human; settings: HPDE vs MiaPaCa-2
Method: as §1, §2

[2] = tested on: mtDNA content in MiaPaCa-2 cells; experiment: Measurement of mtDNA content by qPCR; assay type: cell-based; settings: MiaPaCa-2 (FIG. 11C)
Method: To assess mtDNA content, genomic DNA was isolated with QIAamp® DNA mini kit (Qiagen, Germantown, Md.) from MiaPaCa-2 cells. The mtDNA content was evaluated by co-amplifying a DNA fragment encoding mitochondrial 12S rRNA (forward primer: 5′-[…]-3′; reverse primer: 5′-TGCGCTTACTTTGTAG CCTTCAT-3′) and a DNA fragment encoding the nuclear 18S rRNA (forward primer: 5′-CCCTGCC CTTTGTACACACC-3′; reverse primer: 5′-GATCCGAGGGCCTCACTA-3′). (Vadrot et al., 2012) Real-time qPCR was performed on Viia7 cycler (Applied Biosystems). Amplifications were monitored and analyzed by measuring the intercalation of the fluorescent dye from Fast SYBR® Green Master Mix (Applied Biosystems). Relative mtDNA contents were calculated using 18S rRNA as gene reference.

MiaPaCa-2 cells [3] = experiment: ROS detection assay (H2DCFDA probe); assay type: cell-based
Method: To quantify ROS induction by redox modulators, a high throughput ROS assay in 384-well plates using H2DCFDA as the ROS detection probe was developed (FIG. 1A).
Cells were detached by 0.05% trypsin-EDTA, neutralized, centrifuged (1200 rpm, 5 min) and resuspended in cell culture media. Suspension were then treated with 20 μM cell permeable H2DCFDA for 30 min at 37° C. Cells were then centrifuged (1200 rpm, 5 min) and washed with cell culture media to remove excess probe. After washing, cells were placed in black-wall 384-well plate at 20,000 cells/well, incubated for 30 min and treated by compounds at designated conditions. Fluorescent signal were then read at 493 nm/523 nm on BioTek H1 plate reader for ROS detection.

MiaPaCa-2 xenograft = MiaPaCa-2 xenograft studies; assay type: in vivo, NOD/SCID mice
Method: MiaPaCa-2 cells (2.0×10^6) in a 100 μL suspension of RPMI1640 was injected subcutaneously into dorsal flank of 6-week NOD/SCID mice. Tumor size was monitored twice a week through caliper measurement using the following equation: V=d^2×D/2, where d represents width and D represents length of the tumor. In study 1, mice were randomly grouped (n=5 per group) when average tumor size reached 65 mm^3. Daily treatment was given at five days on two days off cycles. QD325 was given at 5 mg/kg in 100 μL vehicle (5% DMSO, 60% Propylene glycol, 35% Saline) by intraperitoneal injection. […] Unpaired t test was performed for data analysis and p<0.05 was considered significant. […] Procedures for study 2 with gemcitabine treatment are detailed in supplemental information.
On necropsy, tumors, hearts, kidneys, livers, lungs, spleens and pancreases were collected, fixed in 10% neutral buffered formalin, embedded in paraffin, and sectioned. Sections ([…]) were stained with hematoxylin and eosin to facilitate histologic examination. For Ki67 expression level, immunohistochemistry staining was performed on sections with Ki67 antibody. Embedding, sectioning and staining of samples were performed by ULAM pathology core for animal research at the University of Michigan. Representative images were taken on Olympus IX83 microscope with 20× magnification.

BxPC-3 cells = experiment: MTT cytotoxicity assay, BxPC-3; assay type: cell-based; settings: Homo sapiens, three independent experiments
Method: as §1, §2

SMILES: O=C1C(Nc2ccc(-c3ccccc3)cc2)=CC(=O)c2ncncc21 [QD325, 6-([1,1′-biphenyl]-4-ylamino)quinazoline-5,8-dione]
- IC50 (MiaPaCa-2 cells [1]; MIA PaCa-2, 72 h, Table 1, MTT assay, 72 h): < 1000 nM
- IC50 (MiaPaCa-2 cells [1]; MIA PaCa-2, Table 2, MTT assay, read-out: IC 50 MiaPaCa-2): 900 ± 200 nM
- improvement in cytotoxicity compared with QD232 (MiaPaCa-2 cells [1]; MTT assay in PDAC cell lines MiaPaCa-2, Panc-1 and BxPC-3): more than two fold improvement in cytotoxicity
- cytotoxicity in presence of NAC (MiaPaCa-2 cells [1]; MTT assay, 72 h, NAC 5 mM (FIG. 3C)): decreased cytotoxicity
- selectivity for MiaPaCa-2 over HPDE (HPDE): 3 fold
- relative levels of mtDNA over time [2]: decreased time dependently
- ROS induction compared with lead compound QD232 (MiaPaCa-2 cells [3]; MiaPaCa-2, 24 h treatment, 10 μM (FIG. 1C)): significantly higher ROS induction than the lead compound QD232
- accumulation of ROS (MiaPaCa-2 cells [3]; MiaPaCa-2, 10, 3.3 or 1.1 μM (FIG. 3A)): time- and dose-dependent accumulation of ROS
- ROS accumulation at 10 and 3.3 μM (MiaPaCa-2 cells [3]; MiaPaCa-2, 10 and 3.3 μM): rapid and high ROS accumulation
- ROS induction after NAC pretreatment (MiaPaCa-2 cells [3]; MiaPaCa-2, NAC 5 mM for 30 min pretreatment (FIG. 3B)): inhibited
- average tumor size at the end of the 48-day treatment period (MiaPaCa-2 xenograft; QD325 5 mg/kg five times a week, gemcitabine 15 mg/kg once a week, control 1503±189 mm^3): 248±72 mm^3
- growth of tumors (MiaPaCa-2 xenograft; QD325 5 mg/kg i.p. five times a week, treatment period of 44 days): significantly delayed growth of tumors
- average tumor size on day 44 (MiaPaCa-2 xenograft; QD325 5 mg/kg i.p. five times a week, n=5, control 1291±168 mm^3): 308±72 mm^3
- NQO1, HO-1, CHOP and GRP78 protein levels in tumor lysates (MiaPaCa-2 xenograft; QD325 treated tumors vs vehicle controls (FIG. 12E)): significantly upregulated
- growth of tumors at higher doses (MiaPaCa-2 xenograft; after day 44, dose increased from 5 to 20 mg/kg until day 67, two mice per group): able to delay growth of the tumors
- Ki67 levels in tumor tissues (MiaPaCa-2 xenograft; immunohistochemistry of xenograft sections, QD325 5 mg/kg (FIG. 12D)): decreased Ki67 levels
- IC50 (BxPC-3 cells; BXPC-3, 72 h, Table 1, 72 h, Mean ± SD): < 1000 nM
- IC50 (BxPC-3 cells; BXPC-3, Table 2, Mean ± SD, read-out: IC 50 BxPC-3): 500 ± 100 nM
